pIC50: −log10 of the molar value.
What was measured:
[1] = target: T1, EGF-R (HER-1) (Homo sapiens, UniProt P00533); experiment: Inhibition of EGF-R tyrosine kinase activity (recombinant intracellular domain, EGF-R ICD); type: biochemical
T1 construct: using the recombinant intracellular domain of the EGF-receptor [EGF-R ICD
Description: J. Biochem. 207, 265-275 (1992)].
(§1) Inhibition of the Tyrosine Kinase Activity of EGF-R (HER-1), ErbB-2 (HER-2) and VEGF Receptor (KDR)
(§2) The inhibition tests are carried out as described above.

[2] = target: ErbB-2 (HER-2) (Homo sapiens, UniProt P04626); experiment: Inhibition of ErbB-2 tyrosine kinase activity; type: biochemical
Description: The inhibitory activity (IC50) is approximately in the range of 0.001 to 0.5 μM. The inhibition of ErbB-2 tyrosine kinase (HER-2) can be determined, for example, analogously to the method used for EGF-R protein tyrosine kinase [see C. House et al., Europ. J. Biochem. 140, 363-367 (1984)]. The ErbB-2 kinase can be isolated, and its activity determined, by means of protocols known per se, for example in accordance with T. Akiyama et al., Science 232, 1644 (1986).
as §1, §2

[3] = target: VEGF Receptor (KDR) (Homo sapiens, UniProt P35968); experiment: Inhibition of KDR tyrosine kinase activity; type: biochemical
Description: The compounds of the present invention are therefore very effective dual inhibitors of EGF- and VEGF-receptor family members. For inhibition of KDR and Flt-1 and inhibition of growth factor-induced proliferation of HUVECS see J. Wood et al., Cancer Res. 60, 2178-2189 (2000). The compounds of formula I inhibit e.g. the KDR tyrosine kinase activity with an IC50 of from about 1 nM to about 1 μM, especially from about 5 nM to about 0.5 μM.
as §1, §2

T1 sequence (P00533 669-1210 limits assumed): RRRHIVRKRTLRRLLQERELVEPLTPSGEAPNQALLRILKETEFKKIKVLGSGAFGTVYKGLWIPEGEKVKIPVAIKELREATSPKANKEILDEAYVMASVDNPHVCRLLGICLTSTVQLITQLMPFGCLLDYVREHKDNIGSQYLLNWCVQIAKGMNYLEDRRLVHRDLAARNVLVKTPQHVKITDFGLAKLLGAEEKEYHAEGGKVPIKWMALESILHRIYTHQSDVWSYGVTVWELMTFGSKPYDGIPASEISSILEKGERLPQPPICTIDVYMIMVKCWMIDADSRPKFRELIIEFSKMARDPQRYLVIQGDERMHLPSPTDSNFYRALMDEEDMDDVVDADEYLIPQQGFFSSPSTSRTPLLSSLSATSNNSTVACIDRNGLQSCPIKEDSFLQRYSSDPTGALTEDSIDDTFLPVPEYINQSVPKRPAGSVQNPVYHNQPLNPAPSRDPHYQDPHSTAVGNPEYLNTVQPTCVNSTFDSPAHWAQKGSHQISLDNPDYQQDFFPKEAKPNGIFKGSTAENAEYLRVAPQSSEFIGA
Chain of VEGF Receptor (KDR) (P35968 20-1356): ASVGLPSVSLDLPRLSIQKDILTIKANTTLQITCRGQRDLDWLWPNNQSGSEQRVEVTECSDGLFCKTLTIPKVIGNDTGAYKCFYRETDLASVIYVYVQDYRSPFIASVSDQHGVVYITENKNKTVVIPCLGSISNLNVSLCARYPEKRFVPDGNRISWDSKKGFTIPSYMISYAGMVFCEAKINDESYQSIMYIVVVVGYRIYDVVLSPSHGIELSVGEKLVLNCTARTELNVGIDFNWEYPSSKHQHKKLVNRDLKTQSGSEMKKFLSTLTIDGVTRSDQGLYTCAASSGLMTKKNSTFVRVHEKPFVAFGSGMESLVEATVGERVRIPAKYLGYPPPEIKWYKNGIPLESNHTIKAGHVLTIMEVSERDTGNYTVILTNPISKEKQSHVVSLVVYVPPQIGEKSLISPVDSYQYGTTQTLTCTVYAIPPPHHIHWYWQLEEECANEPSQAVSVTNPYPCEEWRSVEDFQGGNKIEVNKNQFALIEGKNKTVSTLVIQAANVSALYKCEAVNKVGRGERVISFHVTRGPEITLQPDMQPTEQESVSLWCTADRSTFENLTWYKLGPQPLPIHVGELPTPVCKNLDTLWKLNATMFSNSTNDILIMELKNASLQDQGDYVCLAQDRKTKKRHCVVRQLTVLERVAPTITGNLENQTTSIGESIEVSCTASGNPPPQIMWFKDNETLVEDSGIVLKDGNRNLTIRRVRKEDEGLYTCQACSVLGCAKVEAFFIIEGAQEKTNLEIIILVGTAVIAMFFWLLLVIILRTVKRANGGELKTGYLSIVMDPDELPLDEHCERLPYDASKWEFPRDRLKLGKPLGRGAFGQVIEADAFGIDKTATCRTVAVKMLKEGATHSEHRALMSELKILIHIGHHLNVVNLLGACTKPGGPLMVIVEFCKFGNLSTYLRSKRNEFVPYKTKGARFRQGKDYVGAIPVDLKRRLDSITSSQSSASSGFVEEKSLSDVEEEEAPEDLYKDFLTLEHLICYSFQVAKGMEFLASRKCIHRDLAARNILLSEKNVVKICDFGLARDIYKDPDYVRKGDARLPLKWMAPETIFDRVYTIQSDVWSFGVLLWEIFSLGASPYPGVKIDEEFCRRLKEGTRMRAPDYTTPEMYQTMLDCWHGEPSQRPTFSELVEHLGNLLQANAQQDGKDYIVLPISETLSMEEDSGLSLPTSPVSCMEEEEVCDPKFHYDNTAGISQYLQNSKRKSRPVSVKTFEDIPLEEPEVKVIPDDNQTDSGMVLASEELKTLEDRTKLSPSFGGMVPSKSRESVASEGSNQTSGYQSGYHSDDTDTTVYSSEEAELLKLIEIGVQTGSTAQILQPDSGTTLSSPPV
Chain of ErbB-2 (HER-2) (P04626 23-1255): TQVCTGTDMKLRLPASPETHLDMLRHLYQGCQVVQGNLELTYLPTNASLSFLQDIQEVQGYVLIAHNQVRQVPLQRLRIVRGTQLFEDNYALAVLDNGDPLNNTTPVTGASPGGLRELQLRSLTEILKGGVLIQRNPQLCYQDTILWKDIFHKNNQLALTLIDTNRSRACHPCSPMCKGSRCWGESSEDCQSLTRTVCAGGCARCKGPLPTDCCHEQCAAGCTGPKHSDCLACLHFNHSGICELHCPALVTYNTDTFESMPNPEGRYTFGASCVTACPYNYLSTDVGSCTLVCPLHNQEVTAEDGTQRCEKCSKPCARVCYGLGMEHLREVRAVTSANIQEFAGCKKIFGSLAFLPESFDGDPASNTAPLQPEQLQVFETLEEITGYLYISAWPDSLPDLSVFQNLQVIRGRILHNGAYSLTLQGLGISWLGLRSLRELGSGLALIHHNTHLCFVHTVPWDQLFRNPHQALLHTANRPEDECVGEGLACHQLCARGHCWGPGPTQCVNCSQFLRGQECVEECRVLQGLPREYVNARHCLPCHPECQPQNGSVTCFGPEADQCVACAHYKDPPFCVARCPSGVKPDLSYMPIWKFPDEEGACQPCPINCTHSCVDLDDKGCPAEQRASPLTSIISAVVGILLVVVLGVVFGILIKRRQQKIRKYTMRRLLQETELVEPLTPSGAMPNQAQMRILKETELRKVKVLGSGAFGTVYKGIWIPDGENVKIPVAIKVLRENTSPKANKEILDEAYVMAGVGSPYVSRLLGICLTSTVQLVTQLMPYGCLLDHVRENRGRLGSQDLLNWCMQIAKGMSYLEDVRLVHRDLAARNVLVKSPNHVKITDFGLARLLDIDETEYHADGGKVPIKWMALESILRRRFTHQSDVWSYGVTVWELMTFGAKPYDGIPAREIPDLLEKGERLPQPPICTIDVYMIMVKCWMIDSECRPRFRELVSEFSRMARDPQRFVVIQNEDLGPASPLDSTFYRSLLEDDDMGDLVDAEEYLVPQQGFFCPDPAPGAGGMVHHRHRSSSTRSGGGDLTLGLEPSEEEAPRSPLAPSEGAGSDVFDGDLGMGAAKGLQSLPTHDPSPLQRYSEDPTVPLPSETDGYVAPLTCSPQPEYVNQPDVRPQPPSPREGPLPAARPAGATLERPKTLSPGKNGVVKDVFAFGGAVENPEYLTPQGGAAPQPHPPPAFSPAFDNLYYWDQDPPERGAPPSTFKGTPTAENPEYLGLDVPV

| SMILES | pIC50 [1] | pIC50 [2] | pIC50 [3] | melting point [°C] |
| --- | --- | --- | --- | --- |
| CN1CCN(Cc2ccc(-c3cc4c(NCc5ccccc5Cl)ncnc4[nH]3)cc2)CC1 [Example 94, (2-Chloro-benzyl)-{6-[4-(4-methyl-piperazin-1-ylmethyl)-phenyl]-7H-pyrrolo[2,3-d]pyrimidin-4-yl}-amine] | 8.74 | 7.80 | 7.38 | 267 to 269 |
| C[C@@H](Nc1ncnc2[nH]c(-c3ccc(CN4CCOCC4)cc3)cc12)c1ccccc1 [Example 15, [6-(4-Morpholin-4-ylmethyl-phenyl)-7H-pyrrolo[2,3-d]pyrimidin-4-yl]-((R)-1-phenyl-ethyl)-amine] | 8.30 | 8.19 | 7.31 | 263 to 265 |
| C[C@@H](Nc1ncnc2[nH]c(-c3ccc(CNC(=O)CN4CCN(C)CC4)cc3)cc12)c1ccccc1 [Example 43, 2-(4-Methyl-piperazin-1-yl)-N-{4-[4-((R)-1-phenyl-ethylamino)-7H-pyrrolo[2,3-d]pyrimidin-6-yl]-benzyl}-acetamide] | 8.30 | 7.94 | 7.29 | 150 to 152 |
| CCN1CCN(Cc2ccc(-c3cc4c(N[C@H](C)c5ccccc5)ncnc4[nH]3)cc2)CC1 [Example 11, {6-[4-(4-Ethyl-piperazin-1-ylmethyl)-phenyl]-7H-pyrrolo[2,3-d]pyrimidin-4-yl}-((R)-1-phenyl-ethyl)-amine] | – | 8.30 | 7.30 | – |
| C[C@@H](Nc1ncnc2[nH]c(-c3ccc(CN4CCCCC4)cc3)cc12)c1ccccc1 [Example 14, ((R)-1-Phenyl-ethyl)-[6-(4-piperidin-1-ylmethyl-phenyl)-7H-pyrrolo[2,3-d]pyrimidin-4-yl]-amine] | 8.20 | 8.07 | 7.03 | 246 to 248 |
| Clc1cccc(CNc2ncnc3[nH]c(-c4ccc(CN5CCOCC5)cc4)cc23)c1 [Example 86, (3-Chloro-benzyl)-[6-(4-morpholin-4-ylmethyl-phenyl)-7H-pyrrolo[2,3-d]pyrimidin-4-yl]-amine] | 8.26 | 7.80 | 6.98 | 253 to 254.5 |
| C[C@@H](Nc1ncnc2[nH]c(-c3ccc(CNCCN4CCOCC4)cc3)cc12)c1ccccc1 [Example 16a, (6-{4-[(2-Morpholin-4-yl-ethylamino)-methyl]-phenyl}-7H-pyrrolo[2,3-d]pyrimidin-4-yl)-((R)-1-phenyl-ethyl)-amine] | 8.92 | 7.80 | 7.21 | 222 to 224 |
| CN1CCN(Cc2ccc(-c3cc4c(Nc5ccc(OCc6ccccc6)cc5)ncnc4[nH]3)cc2)CC1 [Example 18, (4-Benzyloxy-phenyl)-{6-[4-(4-methyl-piperazin-1-ylmethyl)-phenyl]-7H-pyrrolo[2,3-d]pyrimidin-4-yl}-amine] | 7.78 | 7.50 | 7.61 | 256 to 258 |
| CN1CCN(CC(=O)NCc2ccc(-c3cc4c(Nc5ccc(OCc6ccccc6)cc5)ncnc4[nH]3)cc2)CC1 [Example 52, N-{4-[4-(4-Benzyloxy-phenylamino)-7H-pyrrolo[2,3-d]pyrimidin-6-yl]-benzyl}-2-(4-methyl-piperazin-1-yl)-acetamide] | 7.80 | 7.85 | 6.90 | 232 to 234 |
| CCN1CCN(Cc2cccc(-c3cc4c(Nc5ccc(F)c(Cl)c5)ncnc4[nH]3)c2)CC1 [Example 35, (3-Chloro-4-fluoro-phenyl)-{6-[3-(4-ethyl-piperazin-1-ylmethyl)-phenyl]-7H-pyrrolo[2,3-d]pyrimidin-4-yl}-amine] | – | – | – | 238 to 240 |
| C[C@@H](Nc1ncnc2[nH]c(-c3ccc(CN4CCN(C)CC4)cc3)cc12)c1ccccc1 [Example 9, {6-[4-(4-Methyl-piperazin-1-ylmethyl)-phenyl]-7H-pyrrolo[2,3-d]pyrimidin-4-yl}-((R)-1-phenyl-ethyl)-amine] | – | – | – | 248 to 250 |

Now from value to compound:

| pIC50 [1] | pIC50 [2] | pIC50 [3] | melting point [°C] | SMILES |
| --- | --- | --- | --- | --- |
| 8.51 | 8.14 | 8.03 | 268 to 270 | Fc1ccc(Nc2ncnc3[nH]c(-c4ccc(CN5CCCC5)cc4)cc23)cc1Cl [Example 4, (3-Chloro-4-fluoro-phenyl)-[6-(4-pyrrolidin-1-ylmethyl-phenyl)-7H-pyrrolo[2,3-d]pyrimidin-4-yl]-amine] |
| 8.15 | 8.30 | 7.90 | 267 to 269 | Fc1ccc(Nc2ncnc3[nH]c(-c4ccc(CN5CCCCC5)cc4)cc23)cc1Cl [Example 6, (3-Chloro-4-fluoro-phenyl)-[6-(4-piperidin-1-ylmethyl-phenyl)-7H-pyrrolo[2,3-d]pyrimidin-4-yl]-amine] |
| 8.22 | 8.30 | 7.06 | – | C[C@@H](Nc1ncnc2[nH]c(-c3ccc(CN(C)C)cc3)cc12)c1ccccc1 [Example 13, [6-(4-Dimethylamino-methyl-phenyl)-7H-pyrrolo[2,3-d]pyrimidin-4-yl]-((R)-1-phenyl-ethyl)-amine] |
| 8.24 | 8.12 | 7.24 | 272 to 275 | O=C(CN1CCOCC1)NCc1ccc(-c2cc3c(Nc4ccc(F)c(Cl)c4)ncnc3[nH]2)cc1 [Example 48, N-{4-[4-(3-Chloro-4-fluoro-phenylamino)-7H-pyrrolo[2,3-d]pyrimidin-6-yl]-benzyl}-2-morpholin-4-yl-acetamide] |
| 8.51 | 8.17 | 8.22 | 264 to 266 | CN1CCN(Cc2ccc(-c3cc4c(Nc5ccc(F)c(Cl)c5)ncnc4[nH]3)cc2)CC1 [Example 5, (3-Chloro-4-fluoro-phenyl)-{6-[4-(4-methyl-piperazin-1-ylmethyl)-phenyl]-7H-pyrrolo[2,3-d]pyrimidin-4-yl}-amine] |
| 8.62 | 8.03 | 7.77 | 288 to 290 | Fc1ccc(Nc2ncnc3[nH]c(-c4ccc(CNC5CCOCC5)cc4)cc23)cc1Cl [Example 8a, (3-Chloro-4-fluoro-phenyl)-(6-{4-[(tetrahydro-pyran-4-ylamino)-methyl]-phenyl}-7H-pyrrolo[2,3-d]pyrimidin-4-yl)-amine] |
| 8.60 | 7.35 | 7.72 | – | Cc1cccc(CNc2ncnc3[nH]c(-c4ccc(CN(C)C)cc4)cc23)c1 [107f^] |
| – | 8.05 | 7.53 | 246 to 248 | CCN(CC)Cc1ccc(-c2cc3c(N[C@H](C)c4ccccc4)ncnc3[nH]2)cc1 [Example 10, [6-(4-Diethylamino-methyl-phenyl)-7H-pyrrolo[2,3-d]pyrimidin-4-yl]-((R)-1-phenyl-ethyl)-amine] |
| 7.41 | 7.81 | 7.81 | – | CN(C)Cc1ccc(-c2cc3c(Nc4ccc(=O)[nH]c4)ncnc3[nH]2)cc1 [Example 116, 5-[6-(4-Dimethylaminomethyl-phenyl)-7H-pyrrolo[2,3-d]pyrimidin-4-ylamino]-1H-pyridin-2-one] |
| 8.51 | 8.10 | 7.97 | 266 to 268 | CCN1CCN(Cc2ccc(-c3cc4c(Nc5ccc(F)c(Cl)c5)ncnc4[nH]3)cc2)CC1 [Example 3, (3-Chloro-4-fluoro-phenyl)-{6-[4-(4-ethyl-piperazin-1-ylmethyl)-phenyl]-7H-pyrrolo[2,3-d]pyrimidin-4-yl}-amine] |
| 8.33 | 8.30 | 6.86 | 254 to 256 | C[C@@H](Nc1ncnc2[nH]c(-c3ccc(CN4CCCC4)cc3)cc12)c1ccccc1 [Example 12, ((R)-1-Phenyl-ethyl)-[6-(4-pyrrolidin-1-ylmethyl-phenyl)-7H-pyrrolo[2,3-d]pyrimidin-4-yl]-amine] |
| 8.40 | 7.96 | 7.24 | 298 to 300 | Fc1ccc(Nc2ncnc3[nH]c(-c4ccc(CN5CCOCC5)cc4)cc23)cc1Cl [Example 7, (3-Chloro-4-fluoro-phenyl)-[6-(4-morpholin-4-ylmethyl-phenyl)-7H-pyrrolo[2,3-d]pyrimidin-4-yl]-amine] |
| – | – | – | 241 to 243 | CCN1CCN(Cc2ccc(-c3cc4c(NCc5cccc(Cl)c5)ncnc4[nH]3)cc2)CC1 [Example 83, (3-Chloro-benzyl)-{6-[4-(4-ethyl-piperazin-1-ylmethyl)-phenyl]-7H-pyrrolo[2,3-d]pyrimidin-4-yl}-amine] |
| – | – | – | 236 to 238 | CCNCc1ccc(-c2cc3c(N[C@H](C)c4ccccc4)ncnc3[nH]2)cc1 [Example 16f, [6-(4-Ethylaminomethyl-phenyl)-7H-pyrrolo[2,3-d]pyrimidin-4-yl]-((R)-1-phenyl-ethyl)-amine] |
